Measurements: patent US5622936A (priority 1988, dated 1997)

Key:
[1] = test system: bone-marrow; assay: Bone-marrow toxicity
[2] = Acute toxicity in male CD2 F1 mice with autopsy; format: in vivo, mouse; details: 100 and 1000 mg/kg i.p.
Source text: (§1) Autopsy of the animals after 28 days gave no findings. […] The result of autopsy (among others liver, kidneys, spleen, brain, bone marrow) on day 15 after the onset of treatment gave no finding.

[3] = test system: mammary tumor cell-line 1C39; assay: Cytotoxic activity in vitro, mammary tumor cell line 1C39; format: cell-based, rat
Source text: (§2) This was confirmed by measuring the biological efficiency, namely the cytotoxic activity in vitro by studies done on a murine retrothelial sarcoma, and on rat mammary tumor cell lines, and on Eb/Esb cell lines.

[4] = test system: mammary tumor cell-line 1C32; assay: Cytotoxic activity in vitro, mammary tumor cell line 1C32; format: cell-based, rat
Source text: as §2

[5] = test system: mammary tumor cell-line 1C29; assay: Cytotoxic activity in vitro, mammary tumor cell line 1C29; format: cell-based, rat
Source text: as §2

[6] = Stability in methanolic solution (TLC analysis); format: physicochemical; details: room temperature
[7] = test system: glycosidases; assay: Enzymatic cleavage of the glycosidic bond by glycosidases (release of IPM); format: biochemical; details: glycosidases / enzyme mixtures, TLC, NBP detection
Method: On incubation of the glycosides in HEPES or water with corresponding glycosidases a rapid cleavage of the glycosidic bond could be observed.
(§3) Because each in 50 and 51 two glycosidic bonds are present, showing the same (51β) or a different configuration (f.i. 50α), along with single glucosidases enzyme mixtures were used to check the enzymatic release of IPM. The enzymatic cieavage of the pure anomeric conjugates 50 and 51 was monitored by TLC; intact conjugates or the cleavage products 28α, 28β or IPM were detected with NBP.

[8] = test system: β-glucosidase; assay: Cleavage by a single enzyme, β-glucosidase (TLC); format: biochemical
Source text: as §3

[9] = Toxicity in BD6 rats with transplanted 1C32 tumor with autopsy; format: in vivo, rat
Source text: as §1

[10] = test system: retrothelial sarcoma cells

O=P(NCCCl)(NCCCl)O[C@@H]1O[C@H](CO)[C@@H](O)[C@H](O)[C@H]1O [Compound 28β, β-D-Glucopyranosyl N,N'-di-(2-chloroethyl) phosphoric acid diamide]
bone-marrow toxicity [1]: very low | acute toxicity [2]: no acute toxicity could be observed | autopsy ([2]; after 28 days): no findings

O=P(NCCCl)(NCCCl)O[C@@H]1O[C@H](CO)[C@H](O)[C@H](O)[C@H]1O [Compound 29β, β-D-Galactopyranosyl N,N'-di-(2-chloroethyl) phosphoric acid diamide]
most effective agent (cytotoxic activity) [3]: always the most effective agent | most effective agent (cytotoxic activity) [4]: always the most effective agent | most effective agent (cytotoxic activity) [5]: always the most effective agent

O=P(NCCCl)(NCCCl)OC1O[C@H](CO)[C@@H](O[C@@H]2O[C@H](CO)[C@H](O)[C@H](O)[C@H]2O)[C@H](O)[C@H]1O (some centres unmarked) [Compound 50]
stability [6]: stable | cleavage required for the release of IPM [7]: cleavage of two different glycosidic bonds was required

O=P(NCCCl)(NCCCl)OC1O[C@H](CO)[C@@H](O[C@@H]2O[C@H](CO)[C@@H](O)[C@H](O)[C@H]2O)[C@H](O)[C@H]1O (some centres unmarked) [Compound 51]
stability [6]: stable

O=P(NCCCl)(NCCCl)O[C@H]1O[C@H](CO)[C@@H](O[C@@H]2O[C@H](CO)[C@@H](O)[C@H](O)[C@H]2O)[C@H](O)[C@H]1O [Compound 51α, 4-O-(β-D-glucopyranosyl) α-D-glucopyranosyl N,N'-di-(2-chlorethyl) phosphoric acid diamide]
cleavage required for the release of IPM [7]: cleavage of two different glycosidic bonds was required

O=P(NCCCl)(NCCCl)O[C@@H]1O[C@H](CO)[C@@H](O[C@@H]2O[C@H](CO)[C@@H](O)[C@H](O)[C@H]2O)[C@H](O)[C@H]1O [Compound 51β, 4-O-(β-D-Glucopyranosyl) β-D-glucopyranosyl N,N'-di-(2-chloroethyl) phosphoric acid diamide]
complete cleavage by a single enzyme [8]: could be completely cleaved by a single enzyme

O=P(NCCCl)(NCCCl)OC1O[C@H](CO)[C@H](O)[C@H](O)[C@H]1O (some centres unmarked) [Gal-IPM]
toxicity ([9]; BD6 rats with transplanted 1C32 tumor, 5-122.5 and 5-245 mg/kg, resp.): did not show any toxicity | autopsy ([9]; day 15 after onset of treatment, liver, kidneys, spleen, brain, bone marrow): no finding

O=P(O)(NCCCl)NCCCl [IPM]
cytotoxicity [10]: cytotoxicity
